Experimental data published in US9387213B2, “Small molecules inhibiting oncoprotein Myc” (Health Research, Inc., priority 2012, dated 2016).

Columns and labels:
in vitro = settings: microsomes, pH 7.4; for Percent Remaining 0 min: 0 h; for Percent Remaining 0 min / Percent Remaining 10 min / Percent Remaining 20 min / Percent Remaining 30 min / Percent Remaining 60 min: 1 μM; for Percent Remaining 30 min: 0.5 h; for Percent Remaining 60 min: 1 h
Method: Additionally, several of the N77A7 analogs were subjected to the test for the metabolic stability in human and mouse liver microsomes. Briefly, 1 μM of test compound was incubated with microsomal protein (human liver microsomes: 0.5 mg/mL; mouse liver microsomes 0.5 mg/mL) and buffer (100 mM potassium phosphate, pH 7.4, 5 mM magnesium chloride). The positive control was 5 μM testosterone. The reaction was equilibrated at 37 C in a shaking water bath for 3 to 5 minutes. After equilibration, an aliquot was removed and combined with 50/50 acetonitrile/water containing 0.1% formic acid and internal standard to terminate the reaction. 1 mM NADPH was immediately added and the tube was returned to the water bath. Five sample time points were taken (0, 10, 20, 30, and 60 minutes). Aliquots were removed and combined with 50/50 acetonitrile/water containing 0.1% formic acid and internal standard to terminate the reaction. The samples were mixed for 10 minutes and centrifuged. The supernatant from each sample was diluted (if necessary) and then transferred to vials for analysis by LC-MS/MS for the test compound and internal standard without calibration standards. The percent remaining at each time point was determined by the test compound's peak area response ratio versus the 0 minute sample.

SK-Mel-19 = assay: Suppression of proliferation / senescence induction in melanoma line; format: cell-based; settings: Homo sapiens, SK-MEL19
Text: (§1) 260 analogs of N77A7 were selected from several commercially available libraries of small molecules based on the structural similarities with N77A7. The compounds were screened for the ability to permanently suppress proliferation and induce senescence in cells from melanoma lines SK-Mel-19 and SK-Mel-103. Based on the above-described screening procedure, seven small molecules were identified as having IC50 values lower than that of N77A7.

SK-Mel-103 = assay: as above; format: cell-based; settings: Homo sapiens
Text: as §1

Solubility remark = format: physicochemical; settings: prepared in methylcellulose
[1] = test system: C-MYC-activated global gene expression in SK-Mel-103 melanoma cells; assay: Global gene expression analysis, Affymetrix U133 Plus 2.0; format: cell-based, human; settings: 4 μM, 48 hours
Method: FIG. 13 illustrates a comparison of changes in global gene expression caused by depletion of C-MYC via shRNA or by treatment with N77A7.
SK-Mel-103 melanoma cells were infected with control- or MYC shRNA-expressing lentiviruses or treated with DMSO or 4 μM of N77A7. In 48 hours after lentiviral infection or incubation with the chemicals, cells were collected, RNA was isolated and subjected to global expression analysis using Affymetrix GeneChip® Human Genome U133 Plus 2.0 Platform. A linear model specifically designed for microarray analysis was applied to the data. Differentially expressed probe sets were detected using a nested F-test approach. An adjusted p-value of 0.005 was used to assess significance, adjusting for multiple comparisons using false discovery rate. The obtained results are schematically represented in FIG. 13. It was determined that incubation with N77A7 negatively affected expression of 820 genes by ≧2 fold (591+229, FIG. 13). […] Therefore it is logical to expect that the number of genes whose expression is suppressed both by MYC-shRNA and N77A7 should be higher than the number of genes whose expression is induced by both treatments.

[2] = test system: HO15.19 cells reconstituted with exogenous C-MYC; assay: Inhibition of C-MYC-dependent proliferation, cell cycle distribution by FACS; format: cell-based, rat; settings: 3 μM
Method: In parallel, […] was evaluated for the ability to inhibit C-MYC-dependent proliferation in HO15.19 cells reconstituted with exogenous C-MYC. HO15.19 cells are the only cell line that is capable of continuous proliferation in the absence of any MYC protein expression, a feature that makes this line a reference in the field.

melanoma cells (Mel-9) = assay: Stable-isotope tracing, 13C labeling of central metabolites; format: cell-based; settings: 13C-glucose, 24 h, compared to control
Method: Cells were grown in 6-well plates, and the medium was replaced for the final 24 h of culture with the MEM medium described previously (Scott et al., JBC 286, 42626-34, 2011), containing 50% ^13C-labeled [U-^13C6] glucose or 50% ^13C-labeled [U-^13C5] glutamine] […] Metabolites were extracted and GC-MS analysis and calculation of ^13C labeling were performed as described (Scott et al., 2011). Metabolites were quantified on the basis of fragment ion intensities and standard curves derived from mixtures of standards run concurrently with samples, using the program Metaquant (B. Bunk et al., Bioinformatics 22, 2962-2965, 2006). On the graphs, the 13C labeling percentage is shown as average of to separate experiments (with error bars). Samples from cells treated by antimycon (“N77”), anti-MYC shRNA (“Myc”), nonspecific shRNA (“NS”) and the control treated only by DMSO are shown bars with distinct patterns.

HO-N-myc cells = assay: Secondary filter for Myc specificity: cell growth inhibition, methylene blue staining; format: cell-based, rat
Method: (§2) FIG. 4 illustrates the myc specificity of tested compounds. Rat1a cells expressing c-myc, L-myc or N-myc or lacking any Myc (null) were treated for 72 h with a range of hit compound concentrations. The cells were then fixed and stained with methylene blue and the percentage of cells in the presence of compound compared to DMSO only control was calculated.
(§3) Validated hits were divided into classes when two or more compounds shared significant structural similarity. The ID50 for N-myc transactivation (the inhibitory dose resulting in 50% decrease in luciferase activity) for each hit was calculated from the dose-response N-myc responsive reporter assay. Compounds within each class were ranked by their ID50 for N-myc transactivation and the best compounds within each class were chosen for further studies. In addition, the best of the structurally unique compounds were also analyzed. A total of 46 hits were passed through a secondary filter designed to determine the specificity of the hits for Myc proteins. For this filter, we used a panel of cell lines derived from Rat1a cells (kindly provided by Michael Cole, Dartmouth University): HO-null-c-Myc deficient cells due to homologous recombination that express neither N-myc nor L-myc HO-c-Myc, HO-L-myc and HO-N-myc derived by retroviral transduction of the corresponding Myc genes into HO-null cells. Since each cell line expresses only a single Myc or no Myc family members, we could identify compounds that act through Myc family members as well as which Myc family members. […] The 18 Myc-specific compounds identified during the screening and filtering process are presented in Table 1 and represent distinct classes of molecules, including pyrazoles (e.g., N147A7, N47E10, N147G5), tetrazoles (e.g., N77A7) and 3-bromophenol (e.g., N4G6).

HO-c-Myc cells = assay: as above; format: cell-based, rat
Method: as §2, §3

HO15.19-Vector cells = assay: Cell cycle distribution by FACS; format: cell-based, rat; settings: 3 μM
HO-null cells = assay: Secondary filter for Myc specificity: cell growth inhibition, methylene blue staining; format: cell-based; settings: Rattus norvegicus, 72 h, read-out: ID50 HO-null
Method: as §2, §3

CCN(CC)c1ccc(/C=N/NC(=O)Cn2nnc(-c3ccccc3)n2)c(O)c1 [Compound N77A7]
Percent Remaining 0 min (in vitro; human): 100% | Percent Remaining 10 min (in vitro; human): 87% | Percent Remaining 20 min (in vitro; human): 30% | Percent Remaining 30 min (in vitro; human): 1− Percent | Percent Remaining 60 min (in vitro; human): <1.0% | half-life at 1 µM (in vitro; human): 13.1 min | microsomal CLint at 1 μM (in vitro; human): 110 µL/min/mg | Percent Remaining 0 min (in vitro; mouse): 100% | Percent Remaining 10 min (in vitro; mouse): 25% | Percent Remaining 20 min (in vitro; mouse): 8.9% | Percent Remaining 30 min (in vitro; mouse): 4.5% | Percent Remaining 60 min (in vitro; mouse): <1.0% | half-life at 1 µM (in vitro; mouse): 5.2 min | microsomal CLint at 1 μM (in vitro; mouse): 270 µL/min/mg | IC50 (SK-Mel-19): 3000 nM | IC50 (SK-Mel-103): 3000 nM | solubility (Solubility remark): poorly soluble | number of genes whose expression was negatively affected by ≧2 fold [1]: 820 genes | number of these genes also suppressed ≧2 fold by MYC shRNA [1]: 591 genes | share of genes induced ≧2 fold also upregulated ≧2 fold by MYC shRNA [1]: 47.1% | share of suppressed genes also suppressed ≧2 fold by MYC shRNA [1]: 72.1% | HO15.19-C-MYC G2 ([2]; percent of cells in G2 phase): 15.39% | HO15.19-C-MYC S ([2]; percent of cells in S phase): 34.88% | labeling via glucose of serine, glycine, pyruvate, lactate, TCA-cycle metabolites (melanoma cells (Mel-9)): lower | Myc Index N (HO-N-myc cells; ID50 in HO-null cells divided by ID50 in HO—N-myc cells): 4.5 | IC50 (HO-N-myc cells; Rattus norvegicus, cell growth inhibition, 72 h, methylene blue, read-out: ID50 HO—N-myc): 770 nM | Myc Index C (HO-c-Myc cells; ID50 in HO-null cells divided by ID50 in HO-c-myc cells): 0.8 | IC50 (HO-c-Myc cells; Rattus norvegicus, cell growth inhibition, 72 h, methylene blue, read-out: ID50 HO-c-myc): 4700 nM | HO15.19-Vector G2 (HO15.19-Vector cells; percent of cells in G2 phase): 23.88% | HO15.19-Vector S (HO15.19-Vector cells; percent of cells in S phase): 21.22% | IC50 (HO-null cells): 3640 nM
